Earlier results as cited in patent publication US7022724B2, “Cognition enhancing derivatives of isoxazole triazoloindane GABA-A α5 receptor subunit ligands” (Merck Sharp & Dohme Ltd., priority 2001, dated 2006).

What was measured:
[1] = reported by McNamara and Skelton, Psychobiology 21:101–108
[2] = background statement

For COC(=O)c1cc2c(cn1)[nH]c1ccccc12 [β-CCM], the “spatial learning in the Morris watermaze” value [1] is given as “enhanced spatial learning” and the proconvulsant effect [2] is given as “proconvulsant”.
